Assay results published in patent US6867207B2, “IL-5 inhibiting 6-azauracil derivatives” (Janssen Pharmaceutica N.V., priority 1997, dated 2005).
Marks after values point to notes of the source that are not given here.

system: IL-5 production; assay: In vitro inhibition of IL-5 production in human blood (phytohemagglutinin-stimulated whole blood, ELISA); type: cell-based; details: test dose 1×10^−5 M (values marked *), 48 hours
Procedure, shortened: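 Percent inhibition of IL-5, quantified by ELISA in cell-free supernatants, is given at a single dose of 1×10^−6 M (or 1×10^−5 M). Threefold-diluted human whole blood from healthy men received compound for 60 min at 37° C before 48 h PHA stimulation at 2 μg/mL.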

| Structure (SMILES) | % inh. (percentage inhibition of IL-5 production), marked with * |
| --- | --- |
| Cn1cnnc1SC(c1ccc(Cl)cc1)c1ccc(-n2ncc(=O)[nH]c2=O)cc1Cl (racemic) [Compound 53] | 53* % |

same assay, conditions: test dose 1×10^−5 M (values marked *), 48 hours, read-out: % inh. (percentage inhibition of IL-5 production), marked with *

| Structure (SMILES) | inhibition at 10 µM [%] |
| --- | --- |
| O=c1cnn(-c2ccc(C(NCc3ncc[nH]3)c3ccc(Cl)cc3)c(Cl)c2)c(=O)[nH]1 (racemic) [Compound 50, (±)-2-[3-chloro-4-[(4-chlorophenyl)[(1H-imidazol-2-ylmethyl)amino]methyl]phenyl]-1,2,4-triazine-3,5(2H,4H)-dione] | 20 |

same assay, conditions: test dose 1×10^−6 M, 48 hours

| Structure (SMILES) | % inh. (percentage inhibition of IL-5 production) [%] |
| --- | --- |
| Cc1sc(C(c2ccc(Cl)cc2)c2c(Cl)cc(-n3ncc(=O)[nH]c3=O)cc2Cl)nc1-c1cccc(F)c1 (racemic) [Comp 287] | 94 |
| CNCc1sc(C(c2ccc(Cl)cc2)c2c(Cl)cc(-n3ncc(=O)[nH]c3=O)cc2Cl)nc1-c1ccccc1.Cl.O.O.O (racemic) [Comp 296] | 92 |
| O=C(Cc1sc(C(c2ccc(Cl)cc2)c2c(Cl)cc(-n3ncc(=O)[nH]c3=O)cc2Cl)nc1-c1ccccc1)NC1CCN(Cc2ccccc2)CC1 (racemic) [Comp 326] | 89 |
| CC(c1ccc(Cl)cc1)(c1nnc(-c2ccccc2)o1)c1ccc(-n2ncc(=O)[nH]c2=O)cc1Cl (racemic) [Comp 104] | 60 |
| O=c1cnn(-c2ccc(C(c3ccc(Cl)cc3)c3nc4sccn4c3-c3ccccc3)c(Cl)c2)c(=O)[nH]1 (centres unmarked) [Comp 432] | 82 |
| O=c1cnn(-c2ccc(C(c3ccc(Cl)cc3)c3sc(-c4ccccc4)nc3-c3ccccc3)c(Cl)c2)c(=O)[nH]1 (racemic) [Compound 140] | 45 |
| Cc1nc(-c2ccccc2Cl)c(C(c2ccc(Cl)cc2)c2c(Cl)cc(-n3ncc(=O)[nH]c3=O)cc2Cl)s1 (racemic) [Compound 135] | 88 |
| O=c1cnn(-c2cc(Cl)c(C(Sc3cscn3)c3ccc(Cl)c(C(F)(F)F)c3)c(Cl)c2)c(=O)[nH]1 (centres unmarked) [Compound 387] | 93 |
| O=c1cnn(-c2ccc(C(SCc3ccco3)c3ccc(Cl)cc3)c(Cl)c2)c(=O)[nH]1 (racemic) [Compound 64] | 64 |
| CCOC(=O)N1CCC(c2nnc(C(c3ccc(Cl)cc3)c3c(Cl)cc(-n4ncc(=O)[nH]c4=O)cc3Cl)o2)CC1 (racemic) [Compound 191] | 19 |
| CCOCCc1nnc(C(c2ccc(Cl)cc2)c2c(Cl)cc(-n3ncc(=O)[nH]c3=O)cc2Cl)o1 (racemic) [Compound 181] | 55 |
| O=c1cnn(-c2cc(Cl)c(C(Sc3ncccn3)c3ccc(Cl)cc3)c(Cl)c2)c(=O)[nH]1 (single isomer, unassigned) [Compound 346] | 86 |
| CCOC(=O)c1sc(C(c2ccc(Cl)cc2)c2c(Cl)cc(-n3ncc(=O)[nH]c3=O)cc2Cl)nc1-c1ccccc1Cl (racemic) [Comp 274] | 89 |
| O=c1cnn(-c2cc(Cl)c(C(c3ccc(Cl)cc3)c3nc(-c4cccc(F)c4)cs3)c(Cl)c2)c(=O)[nH]1 (racemic) [Comp 21] | 91 |
| O=c1cnn(-c2cc(Cl)c(C(c3ccc(Cl)cc3)c3nc(-c4cc(F)cc(F)c4)cs3)c(Cl)c2)c(=O)[nH]1 (racemic) [Comp 286] | 86 |
| O=c1cnn(-c2cc(Cl)c(C(c3ccc(Cl)cc3)c3nnc(-c4ccccc4)o3)c(Cl)c2)c(=O)[nH]1 (racemic) [Compound 127, (±)-2-[3,5-dichloro-4-[(4-chlorophenyl)(5-phenyl-1,3,4-oxadizol-2-yl)methyl]-phenyl]-1,2,4-triazine-3,5(2H,4H)-dione] | 94 |
| COC(c1ccc(Cl)cc1)(c1nc2ccccc2s1)c1ccc(-n2ncc(=O)[nH]c2=O)cc1Cl (centres unmarked) [Comp 418] | 47 |
| O=c1cnn(-c2cc(Cl)c(C(c3ccc(Cl)cc3)c3nnc(CCOc4ccccc4)o3)c(Cl)c2)c(=O)[nH]1 (racemic) [Compound 187] | 25 |
| O=c1cnn(-c2ccc(C(O)(c3ccc(Cl)cc3)c3nc4ccccc4s3)c(Cl)c2)c(=O)[nH]1 (centres unmarked) [Comp 111] | 61 |
| O=c1cnn(-c2cc(Cl)c(C(c3ccc(Cl)cc3)c3nc(-c4cccs4)cs3)c(Cl)c2)c(=O)[nH]1 (racemic) [Comp 31] | 93 |

| Structure (SMILES) | % inh. (percentage inhibition of IL-5 production) [%] |
| --- | --- |
| O=c1cnn(-c2ccc(C(Sc3ccncc3)c3ccc(Cl)cc3)c(Cl)c2)c(=O)[nH]1 (racemic) [Compound 65] | 50 |
| CN(Cc1ccccc1)Cc1sc(C(c2ccc(Cl)cc2)c2c(Cl)cc(-n3ncc(=O)[nH]c3=O)cc2Cl)nc1-c1ccccc1 (racemic) [Comp 297] | 90 |
| O=c1cnn(-c2cc(Cl)c(C(c3ccc(Cl)cc3)c3nnc(Cc4ccccc4)o3)c(Cl)c2)c(=O)[nH]1 (racemic) [Compound 173] | 44 |
| Cc1ccoc1-c1nnc(C(c2ccc(Cl)cc2)c2c(Cl)cc(-n3ncc(=O)[nH]c3=O)cc2Cl)o1 (racemic) [Compound 207] | 94 |
| O=c1cnn(-c2cc(Cl)c(C(c3ccc(Cl)cc3)c3nc4ccccc4s3)c(Cl)c2)c(=O)[nH]1 (centres unmarked) [Comp 421] | 86 |
| Cc1sc(C(c2ccc(Cl)cc2)c2c(Cl)cc(-n3ncc(=O)[nH]c3=O)cc2Cl)nc1-c1c(F)cccc1F (racemic) [Comp 268] | 83 |
| CC(C)c1sc(C(c2ccc(Cl)cc2)c2c(Cl)cc(-n3ncc(=O)[nH]c3=O)cc2Cl)nc1-c1ccccc1 (racemic) [Compound 241, (±)-2-[3,5-dichloro-4-[(4-chlorophenyl)[5-(1-methylethyl)-4-phenyl-2-thiazolyl]methyl]-phenyl-1,2,4-triazin-3,5(2H,4H)-dione] | 95 |
| O.O=c1cnn(-c2cc(Cl)c(C(c3ccc(Cl)cc3)c3nnc(-c4ccccc4Cl)o3)c(Cl)c2)c(=O)[nH]1 (racemic) [Compound 163] | 90 |
| CCOC(=O)N1CCC(Nc2ccnc(SC(c3ccc(Cl)cc3)c3c(Cl)cc(-n4ncc(=O)[nH]c4=O)cc3Cl)n2)CC1 (racemic) [Compound 351] | 62 |
| O=c1cnn(-c2ccc(C(Sc3cccc[n+]3[O-])c3ccc(Cl)cc3)c(Cl)c2)c(=O)[nH]1 (racemic) [Compound 73] | 21 |
| COc1ccccc1-c1nnc(C(c2ccc(Cl)cc2)c2c(Cl)cc(-n3ncc(=O)[nH]c3=O)cc2Cl)o1 (racemic) [Compound 171] | 59 |
| COc1ccccc1-c1csc(C(c2ccc(Cl)cc2)c2c(Cl)cc(-n3ncc(=O)[nH]c3=O)cc2Cl)n1 (racemic) [Comp 263] | 92 |
| O=c1cnn(-c2cc(Cl)c(C(Sc3nc4cccnc4s3)c3ccc(Cl)cc3)c(Cl)c2)c(=O)[nH]1 (centres unmarked) [Compound 376] | 92 |
| O=c1cnn(-c2ccc(C(C3=C(c4ccccc4)SC4=NCCN43)c3ccc(Cl)cc3)c(Cl)c2)c(=O)[nH]1 (centres unmarked) [Comp 433] | 53 |
| O=c1cnn(-c2cc(Cl)c(C(Sc3nc4ccccc4[nH]3)c3ccc(Cl)c(C(F)(F)F)c3)c(Cl)c2)c(=O)[nH]1 (centres unmarked) [Compound 396] | 28 |
| O=c1cnn(-c2cc(Cl)c(C(c3ccc(Cl)cc3)c3nc(-c4cc(Cl)ccc4Cl)cs3)c(Cl)c2)c(=O)[nH]1 (racemic) [Comp 257] | 82 |
| Cc1oc(C(c2ccc(Cl)cc2)c2c(Cl)cc(-n3ncc(=O)[nH]c3=O)cc2Cl)nc1-c1ccccc1 (centres unmarked) [Comp 426] | 92 |
| O=C(CO)Nc1cccc(-c2nnc(C(c3ccc(Cl)cc3)c3c(Cl)cc(-n4ncc(=O)[nH]c4=O)cc3Cl)o2)c1 (racemic) [Compound 215] | 54 |
| Cl.O.O=c1cnn(-c2cc(Cl)c(C(c3ccc(Cl)cc3)c3csc(-c4ccncc4)n3)c(Cl)c2)c(=O)[nH]1 (racemic) [Compound 366] | 93 |
| Cc1cc(C(C)(c2ccc(Cl)c(C(F)(F)F)c2)c2nc(-c3ccccc3)c(C)s2)c(Cl)cc1-n1ncc(=O)[nH]c1=O (racemic) [Comp 238] | 74 |

same assay, conditions: test dose 1×10^−6 M, 48 hours, read-out: % inh. (percentage inhibition of IL-5 production)

| Structure (SMILES) | inhibition at 1 µM [%] |
| --- | --- |
| O=c1cnn(-c2cc(Cl)c(C(Sc3nccc(NCCO)n3)c3ccc(Cl)cc3)c(Cl)c2)c(=O)[nH]1 (racemic) [Compound 357, (±)-2-[3,5-dichloro-4-[(4-chlorophenyl)[[4-[(2-hydroxyethyl)amino]-2-pyrimidinyl]-thio]methyl]phenyl]-1,2,4-triazine-3,5(2H,4H)-dione] | 69 |
| Cc1nc(C(c2ccc(Cl)cc2)c2ccc(-n3ncc(=O)[nH]c3=O)cc2Cl)no1 (racemic) [Compound 126, (±)-2-[3-chloro-4-[(4-chlorophenyl)(5-methyl-1,2,4-oxadiazol-3-yl)methyl]phenyl]-1,2,4-triazine-3,5(2H,4H)-dione] | 40 |
| COC(c1ccc(Cl)cc1)(c1nccs1)c1ccc(-n2ncc(=O)[nH]c2=O)cc1Cl (racemic) [Compound 37, (±)-2-[3-chloro-4-[(4-chlorophenyl)-methoxy(2-thiazolyl)methyl]phenyl]-1,2,4-triazine-3,5(2H,4H)-dione] | 61 |
| O=c1cnn(-c2ccc(C(NCCO)c3ccc(Cl)cc3)c(Cl)c2)c(=O)[nH]1 (racemic) [Compound 51, (±)-2-[3-chloro-4-[(4-chlorophenyl)[(2-hydroxyethyl)amino]methyl]phenyl]-1,2,4-triazin-3,5(2H,4H)-dione] | 10 |
| CN1CCN(C(c2ccc(Cl)cc2)c2ccc(-n3ncc(=O)[nH]c3=O)cc2Cl)CC1 (racemic) [Compound 118, (±)-2-[3-chloro-4-[(4-chlorophenyl)(4-methyl-1-piperazinyl)methyl]phenyl]-1,2,4-triazine-3,5(2H,4H)-dione] | 34 |
